Results taken from US20220370464A1, “COMPOSITIONS AND METHODS OF TREATING OR PREVENTING OCULAR INFECTIONS WITH FILOCICLOVIR” (Microbiotix, Inc., priority 2019, published 2022).
Read-outs that look alike come from different tables or passages of the source.

Key:
AdV6 = assay: Therapeutic efficacy against intravenous AdV6 in immunosuppressed male Syrian hamsters; details: for serum transaminase (ALT) levels (FIG. 7) / virus burden in the liver (FIG. 8): 5 days post challenge; for mortality / survival (FIG. 6A): AdV6-infected hamsters
Method: Four dose levels were tested: 10, 30, 60 and 100 mg/kg p.o. q.d. The highest dose was determined based on rat toxicology data.
All hamsters were immunosuppressed using cyclophosphamide (CP). CP was administered intraperitoneally at a dose of 140 mg/kg, and then twice weekly at a dose of 100 mg/kg.
Filociclovir, in powdered form, was suspended in 0.4% carboxymethyl cellulose (Sigma C5678, Lot #SLBS7273) at 1, 3, 6, and 10 mg/ml and sonicated to visual homogeneity and aliquots stored at 4° C. Aliquots were allowed to equilibrate to room temperature before dosing. Hamsters weighing approximately 100 g were dosed with a 1 ml volume of the appropriate suspension for the 10, 30, 60, and 100 mg/kg dose levels.
The hamsters were divided into 8 groups, 15 hamsters/group, (with the exception of Group 2, which had only 5 hamsters; see Table 3), immunosuppressed, and then injected i.v. with vehicle (Groups 1-2) or 2×10^10 PFU/kg of AdV6 (Groups […]). Groups 1 and 3 received drug vehicle (p.o. q.d.), Group 4 received 10 mg/kg filociclovir (p.o. q.d.), Group 5 received 30 mg/kg filociclovir (p.o. q.d.), Group 6 received 60 mg/kg filociclovir (p.o. q.d.), Groups 2 and 7 received 100 mg/kg filociclovir (p.o. q.d.), and Group 8 received cidofovir (20 mg/kg, 3 times weekly). For all groups, drug administration started 1 day before challenge, and continued according to the schedule above for the duration of the study.
The body weights and any signs of morbidity of the animals were recorded daily. At 5 days post challenge, 5 hamsters (designated at the start of the experiment) from each group (with the exception of Group 2) were sacrificed, and gross pathological observation was performed. Serum and liver samples were collected and the virus burden in liver was determined by a TCID50 assay, and the serum was analyzed for transaminase levels. The remaining 10 hamsters were sacrificed at 14 days post challenge. Hamsters that became visually moribund before Day 14 were sacrificed as needed. In addition to the hamsters observed to be moribund, all hamsters that lost more than 20% of their original body weight were also sacrificed. For the hamsters sacrificed at the conclusion of the experiment and those sacrificed as moribund, serum and liver tissues were collected and banked for possible determination of serum transaminase levels and virus burden in the liver. Liver tissue was preserved in formalin for possible histopathological examination.
As such, there were two endpoints for the study: One, collected from ten animals, was survival and body weight gain/loss (with the option of assaying virus burden in the liver and serum transaminase levels). The other, collected from 5 animals for the Day 5 time point, was virus burden in the liver and serum transaminase levels.

AdV7a = assay: Plaque reduction antiviral IC50 assay in A549, AdV7a; assay type: cell-based, adenovirus 7a; details: unidentified adenovirus
Method: The effectiveness of filociclovir to inhibit a number of adenovirus strains associated with conjunctivitis were tested in an in vitro assay. To determine the in vitro IC50 concentrations, i.e., the concentration of filociclovir that inhibits adenovirus plaque formation by 50%, filociclovir and cidofovir (CDV) were tested against a panel of 7 ocular types of adenovirus.
42 A549 24-well multiplates (1 per each drug and each virus strain) were prepared. 7 adenovirus serotypes were tested at a time. Virus dilutions from known titer of stock viruses (approx. 100 PFU/0.1 ml) were prepared with AdV3 L, AdV4 H, AdV5 M, AdV7a J, AdV8 E, AdV 19/64 K, and AdV37 ATCC. 0.1 ml (containing approx. 100 PFU) of each of the 7 viruses were plated onto all 24 wells of an A549 multiplate and incubated at 37° C. in a 5% CO2 water-vapor atmosphere for 3 hours.
Dilutions of filociclovir and cidofovir were prepared at 400, 40, 4.0, 0.4, 0.04, and 0.004 μM in 2× nutrient tissue culture media, following the dilution protocol: 7.5 ml of each of filociclovir and cidofovir dilution was added to a tube and 22.5 ml of methylcellulose in outgrowth medium (OG) was then added to each tube. 1 ml of each filociclovir and cidofovir dilutions was added to an additional 15 ml tube and 3 ml of OG was added to each tube. This was the overlay for the Adv8 plates. Normal methylcellulose overlay medium without any drug was used for the control wells for each plate.
For each virus plate, 3 wells were overlaid with each of the 6 final filociclovir and cidofovir concentrations (100, 10, 1.0, 0.1, 0.01, and 0.001 μM) and 6 wells with the control media. Plates were incubated at 37° C. in a 5% CO2 water-vapor atmosphere until plaques were visible. When plaques became visible, plates were stained with gentian violet and plaques were counted at 25λ using a dissecting microscope. The IC50 concentrations were determined from Fitted Line Plot regression analysis using Minitab. All assays were performed in triplicate.

ocular AdV infections = details: literature, cited from earlier work
HHV-6B = details: cited from earlier work
HHV-8 = details: γ Herpesvirus, cited from earlier work
AdV 8 = assay: Antiviral EC50 against AdV 8 (method not given); assay type: cell-based, adenovirus 8; details: unidentified adenovirus; AdV 8, summary table

Compound: Nc1ccn(C[C@@H](CO)OCP(=O)(O)O)c(=O)n1 [CDV, cidofovir, reference compound]
- serum transaminase (ALT) levels (FIG. 7) (AdV6; 20 mg/kg i.p. 3x weekly): none of the filociclovir- or CDV-treated animals had elevated serum transaminase levels
- virus burden in the liver (FIG. 8) (AdV6; 20 mg/kg i.p. 3x weekly): very low to nonquantifiable levels
- IC50 (AdV7a; read-out: Mean IC50): 1.81 µM
- IC50 (AdV7a; read-out: Median IC50): 0.617 µM
- ocular toxicity (ocular AdV infections; even at low doses): substantial ocular toxicity
- improvement in the symptoms or course of the disease (ocular AdV infections; ocular AdV infections): not exhibited a statistically significant improvement

Compound: Nc1nc2c(ncn2/C=C2/CC2(CO)CO)c(=O)[nH]1 [Filociclovir, 2-amino-9-{(Z)-[2,2-bis(hydroxymethyl)cyclopropylidene]methyl}-3,9-dihydro-6H-purin-6-one]
- body weight loss (FIG. 6B) (AdV6; 10 mg/kg p.o. q.d.): reversed
- mortality / survival (FIG. 6A) (AdV6; 10 mg/kg p.o. q.d.): prevented mortality
- body weight loss (FIG. 6B) (AdV6; 30 mg/kg p.o. q.d.): reversed
- mortality / survival (FIG. 6A) (AdV6; 30 mg/kg p.o. q.d.): prevented mortality
- toxicity for AdV6-infected hamsters (AdV6; 60 mg/kg p.o. q.d.): toxic
- toxicity for AdV6-infected hamsters (AdV6; 100 mg/kg p.o. q.d.): toxic
- virus burden in the liver (FIG. 8) (AdV6; 10 mg/kg p.o. q.d.): one animal in the AdV6+10 mg/kg filociclovir group with a very low liver virus burden
- virus burden in the liver (FIG. 8) (AdV6; 30 mg/kg p.o. q.d.): nondetectable level
- serum transaminase (ALT) levels (FIG. 7) (AdV6; filociclovir-treated animals): none of the filociclovir- or CDV-treated animals had elevated serum transaminase levels
- necropsy finding at day 5 sacrifice (AdV6; AdV6+60 mg/kg p.o. q.d.): extensive kidney pathology
- necropsy finding at day 5 sacrifice (AdV6; AdV6+100 mg/kg p.o. q.d.): extensive kidney pathology
- EC50 (HHV-6B): 2.3 ± 1 µM
- EC50 (HHV-6B; listed as filociclovir): ≤ 10 µM
- IC50 (AdV7a; read-out: Mean IC50): 2.12 µM
- IC50 (AdV7a; read-out: Median IC50): 0.769 µM
- EC50 (HHV-8; listed as filociclovir): ≤ 10 µM
- EC50 (HHV-8): 5.6 ± 5 µM
- EC50 (AdV 8): 2 µM
